Where two headings read alike, the source gives them in different places. Values belong to the compound of their own block, whether it stands above or below them.
How the values were obtained:
Experiment in all cases: Kinase panel study
Type in all cases: biochemical
[1] = biological target: T1, AKT1 (PKB alpha) (Homo sapiens, UniProt P31749)
T1 construct: purchased Thermo Fisher Scientific
Description: (§1) The Kinase panel study was entirely provided by Thermo Fisher Scientific using the two lead compounds MW01 and MW05 as well as their derivatives (MW01-E06, MW01-E10, MW01-E14, MW01-E18, MW05-E2, MW05-E3, MW05-E9 and MW05-E10. The experiment was performed using the ZLyte or Adapta protocol according to manufacturer standard operating procedures.
(§2) Based on their similar effects in our screen and molecular analysis, MW01 and MW05 were used in comparative target deconvolution studies seeking common targets despite their distinct structures. To eliminate previously identified kinases regulating NF-κB activity, such as IKK, as possible targets of MW01 and MW05, an in vitro kinase inhibition assay was performed. […] We next investigated if any of the shared kinase targets of MW01 and MW05 play a role in genotoxic stress-induced NF-κB activity and established several criteria to narrow down pathway-relevant targets. Considering the similar NF-κB inhibition phenotypes of both compounds, we hypothesized first that the target should be shared by both lead compounds. Second, based on the CaCo2 recovery values and experimental treatment concentration of 10 µM), the putative target kinase should have a low IC50 of, at most, 2000 nM for both lead compounds in the in vitro kinase panel (Fig. 2A). Based on these criteria alone, we arrived at a relatively short list of potential targets for further analysis, leaving only PIK3CG, PIK3C2G, and CLK2 (Fig. 2B). IC50 values for PIK3C2G by both lead compounds agreed best with these criteria, but RNA expression analysis indicates high tissue specificity as well as lack of expression of this kinase in our U2-OS model cell line, which we then eliminated from further analysis (Uhlén et al., 2015). […] Table 6: Percentage of inhibition of the indicated kinases by MW01 or MW05 at either 10 µM or 1 µM. n.d. = not determined.

[2] = biological target: T2, DNA-PK (Homo sapiens, UniProt P78527)
T2 construct: purchased Thermo Fisher Scientific
Description: as §1, §2

[3] = biological target: T3, DYRK1A (Homo sapiens, UniProt Q13627)
T3 construct: purchased Thermo Fisher Scientific
Description: as §1, §2

[4] = biological target: T4, DYRK1B (Homo sapiens, UniProt Q9Y463)
T4 construct: purchased Thermo Fisher Scientific
Description: as §1, §2

[5] = biological target: T5, EGFR (ErbB1) (Homo sapiens, UniProt P00533)
T5 construct: purchased Thermo Fisher Scientific
Description: as §1, §2

[6] = biological target: T6, IKBKB (IKK beta) (Homo sapiens, UniProt O14920)
T6 construct: purchased Thermo Fisher Scientific
T6 sequence (O14920 1-756): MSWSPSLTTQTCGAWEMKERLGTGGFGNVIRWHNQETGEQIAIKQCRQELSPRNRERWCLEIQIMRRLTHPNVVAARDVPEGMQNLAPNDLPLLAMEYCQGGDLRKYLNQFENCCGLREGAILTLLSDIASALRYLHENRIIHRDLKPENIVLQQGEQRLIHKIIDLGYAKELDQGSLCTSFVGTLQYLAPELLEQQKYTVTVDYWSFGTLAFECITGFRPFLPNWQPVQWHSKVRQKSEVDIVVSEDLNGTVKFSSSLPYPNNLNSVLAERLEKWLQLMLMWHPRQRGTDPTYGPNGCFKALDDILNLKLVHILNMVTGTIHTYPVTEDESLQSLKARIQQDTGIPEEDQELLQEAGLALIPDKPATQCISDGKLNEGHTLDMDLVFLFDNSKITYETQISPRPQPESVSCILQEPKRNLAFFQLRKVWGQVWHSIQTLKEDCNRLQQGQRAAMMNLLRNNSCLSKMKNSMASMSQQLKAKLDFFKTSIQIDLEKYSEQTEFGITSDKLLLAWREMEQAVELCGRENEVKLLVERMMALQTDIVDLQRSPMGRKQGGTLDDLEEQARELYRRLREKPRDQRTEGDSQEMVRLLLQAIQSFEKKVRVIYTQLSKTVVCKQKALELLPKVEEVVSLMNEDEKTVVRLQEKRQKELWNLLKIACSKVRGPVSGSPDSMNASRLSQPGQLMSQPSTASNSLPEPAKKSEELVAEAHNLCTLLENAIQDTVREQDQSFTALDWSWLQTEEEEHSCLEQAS
Description: as §1, §2

[7] = biological target: T7, PI4K2A (PI4K2 alpha) (Homo sapiens, UniProt Q9BTU6)
T7 construct: purchased Thermo Fisher Scientific
Description: as §1, §2

[8] = biological target: T8, PIK3C2A (PI3K-C2 alpha) (Homo sapiens, UniProt O00443)
T8 construct: purchased Thermo Fisher Scientific
Description: as §1, §2

[9] = biological target: T9, PIK3CA/PIK3R1 (p11 0 alpha/p85 alpha) (Homo sapiens, UniProt P42336)
T9 construct: purchased Thermo Fisher Scientific
Description: as §1, §2

[10] = biological target: T10, PIK3CB/PIK3R1 (p110 beta/p85 alpha) (Homo sapiens, UniProt P42338)
T10 construct: purchased Thermo Fisher Scientific
Description: as §1, §2

[11] = biological target: T11, PIK3CB/PIK3R2 (p11 0 beta/p85 beta) (Homo sapiens, UniProt P42338)
T11 construct: purchased Thermo Fisher Scientific
Description: as §1, §2

[12] = 1000nM, read-out: Percentage of inhibition
[13] = 10000nM, read-out: Percentage of inhibition
[14] = AKT1 (PKB alpha), compound at 10µM, read-out: % of Inhibition
[15] = DNA-PK, compound at 10µM, read-out: % of Inhibition
[16] = DYRK1A, compound at 10µM, read-out: % of Inhibition
[17] = DYRK1B, compound at 10µM, read-out: % of Inhibition
[18] = EGFR (ErbB1), compound at 10µM, read-out: % of Inhibition
[19] = IKBKB (IKK beta), compound at 10µM, read-out: % of Inhibition
[20] = PI4K2A (PI4K2 alpha), compound at 10µM, read-out: % of Inhibition
[21] = PIK3C2A (PI3K-C2 alpha), compound at 10µM, read-out: % of Inhibition
[22] = PIK3CA/PIK3R1, compound at 10µM, read-out: % of Inhibition
[23] = PIK3CB/PIK3R1, compound at 10µM, read-out: % of Inhibition
[24] = PIK3CB/PIK3R2, compound at 10µM, read-out: % of Inhibition

T8 sequence (O00443 whole entry): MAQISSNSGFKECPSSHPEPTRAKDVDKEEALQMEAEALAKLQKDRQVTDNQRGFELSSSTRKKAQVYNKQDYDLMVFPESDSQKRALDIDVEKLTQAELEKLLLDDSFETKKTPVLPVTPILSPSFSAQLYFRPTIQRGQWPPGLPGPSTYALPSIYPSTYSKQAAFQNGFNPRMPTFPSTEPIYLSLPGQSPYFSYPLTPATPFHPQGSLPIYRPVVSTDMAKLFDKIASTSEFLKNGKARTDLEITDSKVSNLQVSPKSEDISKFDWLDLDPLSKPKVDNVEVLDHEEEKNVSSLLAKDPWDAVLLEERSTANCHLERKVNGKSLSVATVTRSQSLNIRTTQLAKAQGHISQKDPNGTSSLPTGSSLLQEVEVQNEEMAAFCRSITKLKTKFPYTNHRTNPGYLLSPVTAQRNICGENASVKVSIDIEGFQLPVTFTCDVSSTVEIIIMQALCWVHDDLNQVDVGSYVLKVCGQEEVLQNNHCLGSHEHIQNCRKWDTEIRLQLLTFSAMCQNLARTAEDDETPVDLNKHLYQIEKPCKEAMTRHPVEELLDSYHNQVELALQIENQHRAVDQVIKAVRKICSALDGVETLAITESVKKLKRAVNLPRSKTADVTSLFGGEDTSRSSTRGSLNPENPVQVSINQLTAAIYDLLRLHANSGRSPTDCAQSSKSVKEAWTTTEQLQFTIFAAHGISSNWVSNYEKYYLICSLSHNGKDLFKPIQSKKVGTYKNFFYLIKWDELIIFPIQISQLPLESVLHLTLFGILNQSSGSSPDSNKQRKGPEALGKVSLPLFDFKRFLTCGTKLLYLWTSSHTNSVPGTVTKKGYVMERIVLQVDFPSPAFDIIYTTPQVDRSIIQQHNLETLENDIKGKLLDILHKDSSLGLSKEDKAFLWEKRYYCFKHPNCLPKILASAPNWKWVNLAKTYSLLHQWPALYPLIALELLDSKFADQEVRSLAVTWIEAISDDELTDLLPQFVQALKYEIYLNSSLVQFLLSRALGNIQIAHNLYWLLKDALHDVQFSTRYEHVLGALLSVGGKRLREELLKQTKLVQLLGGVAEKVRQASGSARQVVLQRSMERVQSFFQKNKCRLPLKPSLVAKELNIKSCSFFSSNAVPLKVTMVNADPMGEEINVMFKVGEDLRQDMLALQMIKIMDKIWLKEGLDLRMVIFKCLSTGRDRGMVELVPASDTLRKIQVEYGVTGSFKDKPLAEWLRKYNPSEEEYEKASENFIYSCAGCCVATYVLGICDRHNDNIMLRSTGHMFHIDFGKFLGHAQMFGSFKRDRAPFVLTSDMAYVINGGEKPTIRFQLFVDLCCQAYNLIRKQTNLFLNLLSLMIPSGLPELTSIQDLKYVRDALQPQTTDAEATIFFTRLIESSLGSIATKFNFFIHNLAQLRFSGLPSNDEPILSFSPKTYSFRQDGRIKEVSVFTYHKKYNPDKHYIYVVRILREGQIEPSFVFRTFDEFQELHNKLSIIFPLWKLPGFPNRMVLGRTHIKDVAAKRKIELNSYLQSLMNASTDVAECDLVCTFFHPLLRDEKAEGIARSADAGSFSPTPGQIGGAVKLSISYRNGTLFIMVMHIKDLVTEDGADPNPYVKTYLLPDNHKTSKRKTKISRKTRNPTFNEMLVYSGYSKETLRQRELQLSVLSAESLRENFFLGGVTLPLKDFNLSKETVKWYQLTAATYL
T9 sequence (P42336 whole entry): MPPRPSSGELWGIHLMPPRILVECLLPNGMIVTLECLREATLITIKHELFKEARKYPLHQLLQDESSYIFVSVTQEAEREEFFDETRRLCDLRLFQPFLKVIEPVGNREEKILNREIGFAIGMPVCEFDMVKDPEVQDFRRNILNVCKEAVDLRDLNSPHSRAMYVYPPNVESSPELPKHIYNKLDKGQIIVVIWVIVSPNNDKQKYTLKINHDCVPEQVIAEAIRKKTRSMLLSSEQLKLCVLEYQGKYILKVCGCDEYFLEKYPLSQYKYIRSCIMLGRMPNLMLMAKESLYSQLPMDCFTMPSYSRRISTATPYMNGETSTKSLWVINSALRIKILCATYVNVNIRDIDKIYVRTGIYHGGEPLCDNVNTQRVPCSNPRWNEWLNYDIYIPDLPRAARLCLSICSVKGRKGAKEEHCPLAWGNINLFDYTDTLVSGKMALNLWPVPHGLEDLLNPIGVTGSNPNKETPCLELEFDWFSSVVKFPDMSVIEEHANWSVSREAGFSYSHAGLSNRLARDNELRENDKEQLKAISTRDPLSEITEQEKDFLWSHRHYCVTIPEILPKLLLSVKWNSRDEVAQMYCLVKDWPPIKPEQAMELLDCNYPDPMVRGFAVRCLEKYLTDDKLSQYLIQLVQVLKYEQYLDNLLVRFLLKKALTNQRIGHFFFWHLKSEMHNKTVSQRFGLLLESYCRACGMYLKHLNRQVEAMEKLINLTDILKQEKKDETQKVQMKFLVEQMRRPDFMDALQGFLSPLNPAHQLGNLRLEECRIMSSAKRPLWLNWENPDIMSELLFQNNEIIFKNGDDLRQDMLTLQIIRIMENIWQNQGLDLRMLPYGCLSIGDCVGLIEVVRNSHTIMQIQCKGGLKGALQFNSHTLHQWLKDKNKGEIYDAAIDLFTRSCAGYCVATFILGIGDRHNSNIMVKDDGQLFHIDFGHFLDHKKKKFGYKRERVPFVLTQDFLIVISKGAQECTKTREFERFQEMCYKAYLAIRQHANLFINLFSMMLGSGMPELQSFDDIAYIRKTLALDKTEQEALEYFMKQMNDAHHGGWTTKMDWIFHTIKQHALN
T9 sequence (P27986 whole entry partner): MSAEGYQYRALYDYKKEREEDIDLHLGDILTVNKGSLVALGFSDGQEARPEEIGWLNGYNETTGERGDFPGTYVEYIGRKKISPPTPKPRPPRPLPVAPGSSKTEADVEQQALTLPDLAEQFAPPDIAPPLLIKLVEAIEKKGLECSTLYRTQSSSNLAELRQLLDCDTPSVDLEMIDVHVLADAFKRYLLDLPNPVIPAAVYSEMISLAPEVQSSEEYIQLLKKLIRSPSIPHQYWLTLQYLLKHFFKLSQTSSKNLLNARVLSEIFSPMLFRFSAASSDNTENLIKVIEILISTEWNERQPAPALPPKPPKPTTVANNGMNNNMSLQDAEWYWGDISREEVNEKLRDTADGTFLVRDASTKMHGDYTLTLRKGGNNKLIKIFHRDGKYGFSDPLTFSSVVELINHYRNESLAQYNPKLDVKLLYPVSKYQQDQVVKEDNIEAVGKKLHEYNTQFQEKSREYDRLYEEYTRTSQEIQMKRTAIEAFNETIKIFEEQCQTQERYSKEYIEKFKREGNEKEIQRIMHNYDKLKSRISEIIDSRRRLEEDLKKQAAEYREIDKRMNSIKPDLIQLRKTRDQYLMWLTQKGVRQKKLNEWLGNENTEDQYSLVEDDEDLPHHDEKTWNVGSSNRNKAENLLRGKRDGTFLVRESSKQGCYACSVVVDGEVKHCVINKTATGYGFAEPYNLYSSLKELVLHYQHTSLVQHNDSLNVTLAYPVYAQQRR
T4 sequence (Q9Y463 whole entry): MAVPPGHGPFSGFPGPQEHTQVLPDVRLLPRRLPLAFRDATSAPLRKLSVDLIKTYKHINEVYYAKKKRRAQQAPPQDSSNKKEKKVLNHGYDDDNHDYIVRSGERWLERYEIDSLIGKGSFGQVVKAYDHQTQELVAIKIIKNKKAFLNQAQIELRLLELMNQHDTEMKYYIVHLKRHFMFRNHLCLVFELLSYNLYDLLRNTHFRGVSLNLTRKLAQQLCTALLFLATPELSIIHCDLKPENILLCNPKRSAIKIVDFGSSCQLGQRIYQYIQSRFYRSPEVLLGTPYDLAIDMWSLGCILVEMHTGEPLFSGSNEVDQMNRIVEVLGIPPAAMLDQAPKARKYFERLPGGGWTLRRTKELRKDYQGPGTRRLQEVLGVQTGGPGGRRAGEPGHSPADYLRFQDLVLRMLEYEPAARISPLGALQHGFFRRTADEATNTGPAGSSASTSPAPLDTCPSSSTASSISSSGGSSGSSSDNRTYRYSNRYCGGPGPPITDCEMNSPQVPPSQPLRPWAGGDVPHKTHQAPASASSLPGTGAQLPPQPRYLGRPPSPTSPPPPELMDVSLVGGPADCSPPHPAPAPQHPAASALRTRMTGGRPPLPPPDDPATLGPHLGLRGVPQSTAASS
T1 sequence (P31749 whole entry): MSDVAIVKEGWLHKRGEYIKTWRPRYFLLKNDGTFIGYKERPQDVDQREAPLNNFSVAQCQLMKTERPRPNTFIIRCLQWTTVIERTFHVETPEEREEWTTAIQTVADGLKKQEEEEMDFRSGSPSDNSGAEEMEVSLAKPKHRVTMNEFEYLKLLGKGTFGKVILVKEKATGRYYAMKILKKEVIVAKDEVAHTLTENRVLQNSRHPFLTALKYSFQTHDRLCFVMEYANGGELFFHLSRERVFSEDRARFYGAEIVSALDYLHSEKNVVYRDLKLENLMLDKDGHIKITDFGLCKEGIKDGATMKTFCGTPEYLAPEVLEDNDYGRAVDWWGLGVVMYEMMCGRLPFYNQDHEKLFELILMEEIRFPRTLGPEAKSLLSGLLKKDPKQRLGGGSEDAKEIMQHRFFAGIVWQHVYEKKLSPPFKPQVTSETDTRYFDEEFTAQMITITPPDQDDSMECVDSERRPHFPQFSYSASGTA
T7 sequence (Q9BTU6 whole entry): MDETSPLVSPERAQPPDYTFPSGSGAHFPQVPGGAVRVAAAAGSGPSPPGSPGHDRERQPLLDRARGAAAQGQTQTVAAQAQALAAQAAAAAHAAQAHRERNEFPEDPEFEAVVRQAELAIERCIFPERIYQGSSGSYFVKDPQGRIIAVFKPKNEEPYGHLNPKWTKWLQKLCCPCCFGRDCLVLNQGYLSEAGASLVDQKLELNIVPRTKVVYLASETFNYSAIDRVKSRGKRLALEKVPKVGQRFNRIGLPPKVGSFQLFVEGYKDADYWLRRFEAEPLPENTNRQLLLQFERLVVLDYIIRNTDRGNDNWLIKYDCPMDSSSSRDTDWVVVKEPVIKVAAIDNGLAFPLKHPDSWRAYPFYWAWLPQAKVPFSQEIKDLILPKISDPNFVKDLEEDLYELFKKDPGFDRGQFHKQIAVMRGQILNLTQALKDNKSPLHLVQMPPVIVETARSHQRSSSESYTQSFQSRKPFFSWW

SMILES: COc1ccc2c(c1OC)c(=O)n1c3ccc(O)cc3c3ccnc2c31 [MW01, 5-Hydroxy-10,11-dimethoxy-9H-benzo[c]indolo[3,2,1-ij][1,5]naphthyridin-9-one]
inhibition at 1 µM [1, 12]: 5% | inhibition at 10 µM [1, 13]: 10% | inhibition at 1 µM [2, 12]: 86% | inhibition at 10 µM [2, 13]: 96% | inhibition at 1 µM [3, 12]: 80% | inhibition at 10 µM [3, 13]: 90% | inhibition at 1 µM [4, 12]: 62% | inhibition at 10 µM [4, 13]: 82% | inhibition at 1 µM [5, 12]: 17% | inhibition at 10 µM [5, 13]: 0% | inhibition at 1 µM [6, 12]: 4% | inhibition at 10 µM [6, 13]: 12% | inhibition at 1 µM [7, 12]: 7% | inhibition at 10 µM [7, 13]: 25% | inhibition at 1 µM [8, 12]: 26% | inhibition at 10 µM [8, 13]: 43% | inhibition at 1 µM [9, 12]: 81% | inhibition at 10 µM [9, 13]: 86% | inhibition at 1 µM [10, 12]: 30% | inhibition at 10 µM [10, 13]: 67% | inhibition at 1 µM [11, 12]: 24% | inhibition at 10 µM [11, 13]: 66%

inhibition at 10 µM [1, 14]: 6% | inhibition at 10 µM [2, 15]: 9% | inhibition at 10 µM [3, 16]: 14% | inhibition at 10 µM [4, 17]: 20% | inhibition at 10 µM [5, 18]: 11% | inhibition at 10 µM [6, 19]: 10% | inhibition at 10 µM [7, 20]: 22% | inhibition at 10 µM [8, 21]: 26% | inhibition at 10 µM [9, 22]: 38% | inhibition at 10 µM [10, 23]: 13% | inhibition at 10 µM [11, 24]: 12%
SMILES: COc1ccc2c(c1)c1ccnc3c4nc(OC)ccc4c(=O)n2c13 [MW01-E6, 5,15-dimethoxy-1,11,14-triazapentacyclo[10.7.1,0^2,7.0^8,^20.0^13,^18]icosa-2(7),3,5,8(20),9,11,13(18),14,16-nonaen-19-one]

inhibition at 10 µM [1, 14]: 18% | inhibition at 10 µM [2, 15]: 62% | inhibition at 10 µM [3, 16]: 56% | inhibition at 10 µM [4, 17]: 81% | inhibition at 10 µM [5, 18]: 15% | inhibition at 10 µM [6, 19]: 31% | inhibition at 10 µM [7, 20]: 13% | inhibition at 10 µM [8, 21]: 31% | inhibition at 10 µM [9, 22]: 90% | inhibition at 10 µM [10, 23]: 34% | inhibition at 10 µM [11, 24]: 35%
SMILES: O=c1c2cc(O)ccc2c2nccc3c4cc(O)ccc4n1c32 [MW01-E10, 5,16-dihydroxy-1,11-diazapentacyclo[10.7.1.0^2,^7.0^8,^20.0^13,^18]icosa-2(7),3,5,8(20),9,11,13(18),14,16-nonaen-19-one]

Source: patent publication EP4467141A1, “PYRAZOLO-QUINOLINES AS SELECTIVE INHIBITORS OF GENOTOXIC STRESS-INDUCED IKK/NF- KB PATHWAYS FOR CANCER THERAPY” (Max-Delbrück-Centrum für Molekulare Medizin in der …, priority 2023, dated 2024)
